The values that follow come from PubChem BioAssay (NCI).

Common to all, as to assay: NCI anticancer screen, dose series, 48 h
Experiment [1] relates to ACHN renal.
The subject of experiment [2] is EKVX NSCLC.
Experiment [3] concerns HCT-116 colon.
For experiment [4], the system named is LOX IMVI melanoma.
In experiment [5] the test system is NCI-H23 lung.
Experiment [6] relates to NCI-H460 lung.
In experiment [7] the test system is NCI-H522 lung.
In experiment [8] the test system is OVCAR-3 ovarian.
The subject of experiment [9] is RPMI-8226 leukemia.
For experiment [10], the system named is SF-539 CNS.

Where “and” joins values, the source holds several entries; their conditions need not be identical. Identical values can stand only once.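 Cells were grown in 96-well plates and exposed to each compound for 48 hours at five concentrations; endpoints were interpolated linearly between bracketing concentrations, or set to the highest concentration if not reached. GI50 marks 50% less growth. TGI marks complete inhibition of growth.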

For the molecule `O=S(=O)(NCCCNc1cc(-c2cn(-c3ccccc3)nc2-c2cccc(O)c2)ccn1)c1ccc(Cl)cc1`, the GI50 in experiment [1] is 2.74 µM; in [2], 2.05 µM; in [3] it was 1.57 µM; in experiment [4], 1.42 µM; in experiment [5] it was 1.64 µM; in experiment [6], 1.68 µM. Also, the GI50 in experiment [7] is 1.88 µM; in experiment [8], 1.67 µM; in experiment [9], 1.49 µM; in [10], 1.77 µM. Moreover, the TGI is 13.6 µM in experiment [1]; 29.6 µM in [2]; 3.29 µM in experiment [3]; 2.77 µM in [4]; 4.98 µM in [5]; 3.32 µM in [6]. In addition, the TGI was 4.06 µM in experiment [7], 3.7 µM in [8], 4.68 µM in experiment [9] and 3.79 µM in experiment [10].
Regarding `O=C(/C=C/c1cccnc1)c1ccccc1O`, the GI50 in experiment [1] is 16.7 µM; in experiment [2], 34.7 µM; in experiment [3], 16.8 µM; in experiment [4], 14.4 µM; in experiment [5], 16.9 µM; in experiment [6] it was 30.8 µM. Also, the GI50 in experiment [7] was 16.6 µM; in experiment [8], 20.5 µM; in experiment [9] it was 12.9 µM; in [10], 14.4 µM. For the same molecule, the TGI is 37.6 µM in experiment [1]; over 100 µM in [2]; 34.9 µM in [3]; 30.8 µM in experiment [4]; 36 µM in experiment [5]; over 100 µM in experiment [6]. Besides, the TGI in experiment [7] is 48.7 µM; in [8], 55.2 µM; in experiment [9] it was 39 µM; in experiment [10] it was 34.7 µM.
For `CCN(CC)CCOc1ccc(C(=C2CCCCC2)c2ccc(OCCN(CC)CC)cc2)cc1`, the TGI in experiment [1] turned out to be 3.18 µM; in experiment [2] it was 3.36 µM; in [3] it was 2.54 µM; in experiment [4] it was 2.69 µM; in experiment [5] it was 3.56 µM; in [6], 2.94 µM. The TGI in experiment [7] worked out at 3.29 µM; in experiment [8] it was 3.62 µM; in experiment [9], 4.94 µM; in [10] it was 2.96 µM.
On to `CCN(CC(COc1ccc2c(c1)[n+]([O-])nc(N)[n+]2[O-])OC(C)=O)C(C)=O` (stereo not given), for which the TGI is over 100 µM in experiment [1]; over 100 µM in experiment [2]; over 100 µM in experiment [3]; over 100 µM in experiment [4]; over 100 µM in experiment [5]; 56.3 µM in experiment [7]. The TGI in experiment [8], in experiment [9] and in [10] was over 100 µM each time.
For the molecule `COc1ccc(C(=O)O)c(Cc2ccc3ccccc3c2)c1`, the TGI in experiment [1], in [2], in experiment [3], in [4], in [5] and in experiment [6] was over 100 µM in each case. The TGI in [7], in experiment [8], in experiment [9] and in experiment [10] was over 100 µM each time.
In the case of `Cc1cccc(NC(=O)CC#N)c1Cl`, the TGI in experiment [1], in experiment [2], in experiment [3], in experiment [4], in experiment [5] and in [7] was over 100 µM each time. Besides, the TGI in [8], in experiment [9] and in experiment [10] was over 100 µM in each case.
For the molecule `S=C(N/N=C(/c1ccccc1)c1ccccn1)Nc1cccc(Cl)c1`, the TGI in [1] is 4.6 µM and 5.42 µM; in [2] it was 1.88 µM and 4.7 µM; in experiment [3] it was 1.91 µM and 1.76 µM; in [4], 3.72 µM and > 34 µM; in experiment [5], 5.58 µM and 16.8 µM; in [6] it was 4.69 µM. Moreover, the TGI was 2.4 µM in experiment [7]; 1.98 µM and 4.59 µM in experiment [8]; 2.97 µM and 5.99 µM in [10]. Besides, the GI50 in [2] is 0.433 µM; in experiment [3], 0.00475 µM; in [4], 0.729 µM; in [5], 1.35 µM; in experiment [6], 0.612 µM; in experiment [7], 1.12 µM. In addition, the GI50 in [8] was under 0.001 µM; in experiment [9] it was 0.00601 µM; in experiment [10], 1.12 µM.
Turning to `COC(=O)NN1C(C)=C(C(=O)OC)C2(CCOC2=O)C1(C)O` (stereo not given), the TGI in experiment [1], in [2], in experiment [3], in [4], in experiment [5] and in [6] was over 100 µM in each case. The TGI in experiment [7], in [8], in [9] and in experiment [10] was over 100 µM each time.
In the case of `Cc1ccccc1/C=C1\CN(C(=O)OC(C)(C)C)C/C(=C\c2ccccc2C)C1=O`, the GI50 in experiment [1] was 2.7 µM; in experiment [2], 2.34 µM; in experiment [3], 1.9 µM; in [4] it was 1.88 µM; in experiment [5], 2.2 µM; in [6] it was 2.12 µM. Further, the GI50 was 2.2 µM in [7], 1.85 µM in [8], 1.66 µM in [9] and 1.94 µM in experiment [10]. The TGI was found to be 7.15 µM in experiment [1]; 6.88 µM in experiment [2]; 4.57 µM in experiment [3]; 3.6 µM in [4]; 4.99 µM in [5]; 4.27 µM in [6]. Moreover, the TGI in [7] turned out to be 6.63 µM; in experiment [8], 3.65 µM; in experiment [9], 5.37 µM; in experiment [10] it was 3.64 µM.
For the molecule `N=c1ccn2c(n1)O[C@@H]1[C@@H](O)[C@H](CO)O[C@@H]12`, the GI50 in experiment [1] is 1.45 µM; in [2] it was over 100 µM; in experiment [3] it was 0.519 µM; in experiment [4] it was 6.97 µM; in experiment [5] it was 1.09 µM; in experiment [6], 0.446 µM. Besides, the GI50 in [7] is 0.294 µM; in experiment [9], over 100 µM; in experiment [10] it was 63.9 µM. Further, the TGI in [1], in experiment [2], in experiment [3], in experiment [4], in [5] and in experiment [6] was over 100 µM in each case. Further, the TGI in experiment [7], in [8], in experiment [9] and in experiment [10] was over 100 µM each time.
